Test results published in US20250034159A1, “INHIBITORS OF EPIDERMAL GROWTH FACTOR RECEPTOR” (ORIC Pharmaceuticals, Inc., priority 2021, published 2025).

Columns and labels:
Ba/F3_EGFR WT cells = assay: Biological Activity Assay D: BaF3 cell proliferation assay, EGFR wild-type (BaF3 WT); assay type: cell-based; conditions: Ba/F3 EGFR; Ba/F3_EGFR WT cells, ~72 hours, CellTiter-Glo; read-out: BaF3 WT IC50
Method: (§1) One frozen vial of cells should be thawed into one T25 flask in 10 mL media. Keep the flask upright in the incubator.
(§2) Method: One frozen vial of cells was thawed into one T25 flask in 10 mL media and the flask was kept upright in the incubator. Cells were split 1:10 every two to three days when cells reached confluency of around 1×10^6 cells/mL. Bravo protocol files were used with Greiner 384-well plates for all steps of compound preparation, cell plating and compound addition. […] 16 μL of DMSO were added (for compounds starting at 20 μM) or 28 μL DMSO (for compounds starting at 5 μM) to 96-well V-bottom polypropylene plate: wells 1A-1H (8 compounds/plate). […] 20 μL DMSO were added to the remainder of the wells (columns 2-12) in the 96-well V-bottom plate. A Bravo liquid handler was used to make 1:3 serial dilutions from columns 1 to 11 (12 remains as DMSO only) to prepare the DMSO dilution plate. 144 μL media were added to each well of a new 96-well V-bottom polypropylene plate to prepare the intermediate dilution plate. A Bravo or 96-head Integra liquid handler was used to add and mix 6 μL of test compound from the DMSO dilution plate to the intermediate dilution plate. (1:25 dilution). Cells were transferred from a flask into a 50 mL conical, vortex gently and the number of cells were counted, with a target cell number of about 1×10^6 cells per mL. The cells were diluted in culture medium in 50 mL conical or T25 flask, and the cell suspension was added to BRAVO reservoir and then use Bravo protocol to plate the appropriate number of cells shown below in 36 μl of medium per well as follows: Ba/F3-WT-EGFR 2000 cells per well of a 384 well plate; Ba/F3-LR/CS-EGFR 2000 cells per well of a 384 well plate; and Ba/F3-d19/CS-EGFR 1500 cells per well of a 384 well plate. An extra 10 mL of dead volume was utilized in each reservoir.
(§3) Using a Bravo liquid handler, 4 μl of test compound solution was added per well from the intermediate dilution plate to plated cells (1:10 dilution from the intermediate plate, final compound dilution 1:250 and final DMSO concentration per well is 0.4%). Using the 96 BRAVO Head, 25 μl were aspirated from the intermediate dilution plate and 4 μl each were dispensed into 4 wells (square pattern) in the 384-well plate. Any remaining test compound is dispensed into a secondary plate to prevent cross contamination of cells in the intermediate compound plate. After the compounds were added, the plate was shaken at 600 rpm gently for 60 see, and the plates were incubated in a tissue culture incubator, 37° C., 5% CO2, for ˜ 72 hours. After incubation, CTG 2.0 reagent was allowed to equilibrate to room temperature (˜3 hours) and cells to reach room temperature (˜10-15 minutes) and reagent was added to cells (40 μL/well) using a Bravo liquid handler. The plates were shaken to allow proper mixing (˜5 min) and let settle for 10 minutes and were read on Tecan plate reader using the appropriate luminescence method. Data from plate reader was transferred to an excel file and entered directly into Dotmatics using the protocols under EGFR Project/Cell Proliferation/named: “BaF3_EGFRwt_CP”, “BaF3_EGFR_d19/CS_CP”, “BaF3_EGFR_LR/CS_CP”. Curves were fit with a 4-parameter model and IC50s calculated by the Dotmatics software. DMSO wells were averaged to define the high control (100% growth). The average of the highest concentration of the positive control compound (afatinib) was used to define the 0% growth and used to lock the bottom of the curves. The tops of the curves were not fixed.

[1] = biological target: recombinant human EGFR exon 19 deletion/C797S double mutant protein (Homo sapiens (Human), UniProt P00533, C797S/DEL746-750); assay: Biological Activity Assay C: biochemical assay against EGFR exon 19 deletion/C797S protein (EGFR d19/CS)
Method: In Row A of a 384-well polypropylene plate, was added 48 μL of DMSO. In wells A1 and A24, were added 12 μL of DMSO. […] To a well in Row A were added 12 μL of each 10 mM test compound stock (100% DMSO). […] The final intermediate dilution plate contained 4×16-point compound serial dilutions in assay buffer. The DMSO concentration was 10%. The intermediate compound dilution plate was transferred to the Bravo and the “5 uL dispense into ARP.pro” protocol was run. To the black low volume assay ready plates, were added 5 μL of 40 uM Phosphosens peptide sensor/4 mM ATP working solution to each well. […] To column 24, was added 10 μL of assay buffer. The final DMSO concentration was 2.5%. […] The plates were sealed with the TopSeal-A Plus plate seals. […] Set for 90 cycles with 120 second interval. […] The slope of each curve was constructed using Dotmatics in each well, and each IC50s was calculated using a 4-parameter fit model.

BaF3_EGFR LR/CS cells = assay: Biological Activity Assay D: BaF3 cell proliferation assay, EGFR L858R/C797S mutant (BaF3 LR/CS); assay type: cell-based; conditions: Ba/F3 EGFR; BaF3_EGFR LR/CS cells, ~72 hours, CellTiter-Glo; read-out: BaF3 LR/CS IC50
Method: as §1, §2, §3

BaF3_EGFR d19/CS cells = assay: Biological Activity Assay D: BaF3 cell proliferation assay, EGFR exon 19 deletion/C797S (BaF3 d19/CS); assay type: cell-based; conditions: Ba/F3 EGFR; BaF3_EGFR d19/CS cells, ~72 hours, CellTiter-Glo; read-out: BaF3 d19/CS IC50
Method: as §1, §2, §3

recombinant human EGFR exon 19 deletion/C797S double mutant protein, sequence (P00533 other isoform, or with tags, fused parts or gaps C797S/del 1-668/del 746-750 limits assumed): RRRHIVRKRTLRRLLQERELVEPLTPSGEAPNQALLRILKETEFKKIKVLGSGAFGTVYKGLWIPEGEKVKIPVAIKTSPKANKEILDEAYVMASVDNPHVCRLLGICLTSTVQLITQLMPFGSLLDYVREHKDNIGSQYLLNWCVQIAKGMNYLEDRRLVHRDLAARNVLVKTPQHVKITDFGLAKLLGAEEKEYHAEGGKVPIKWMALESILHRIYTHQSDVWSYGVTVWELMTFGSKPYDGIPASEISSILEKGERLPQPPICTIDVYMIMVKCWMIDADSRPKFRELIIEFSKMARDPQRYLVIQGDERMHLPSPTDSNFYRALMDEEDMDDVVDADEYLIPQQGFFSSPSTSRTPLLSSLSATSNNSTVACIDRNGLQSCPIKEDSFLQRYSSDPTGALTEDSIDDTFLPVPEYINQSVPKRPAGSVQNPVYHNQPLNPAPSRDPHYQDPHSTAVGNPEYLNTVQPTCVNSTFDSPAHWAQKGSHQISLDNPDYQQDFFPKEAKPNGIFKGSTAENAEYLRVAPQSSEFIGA

IC50 (Ba/F3_EGFR WT cells) [nM] | IC50 [1] [nM] | IC50 (BaF3_EGFR LR/CS cells) [nM] | IC50 (BaF3_EGFR d19/CS cells) [nM] | SMILES
1690 | 0.5 | 61.1 | 92.2 | Fc1ccc(-c2nn([C@H]3CCOC[C@H]3F)cc2-c2ncnc3oc(-c4ccccc4)cc23)cc1 (single isomer, unassigned) [Example 210]
4370 | 1.53 | 221 | 200 | Fc1ccc(-c2nn([C@H]3C[C@H](F)C3)cc2-c2ncnc3oc(-c4ccccc4)cc23)cc1 [Example 219, 4-{1-[(1r,3r)-3-fluorocyclobutyl]-3-(4-fluorophenyl)-1H-pyrazol-4-yl}-6-phenylfuro[2,3-d]pyrimidine]
1440 | 0.36 | 158 | 103 | O=S1(=O)CC(n2cc(-c3ncnc4oc(-c5ccns5)cc34)c(-c3ccc(F)cc3)n2)C1 [Example 218, 3-{3-(4-fluorophenyl)-4-[6-(1,2-thiazol-5-yl)furo[2,3-d]pyrimidin-4-yl]-1H-pyrazol-1-yl}-1λ6-thietane-1,1-dione]
1740 | 0.89 | 212 | 133 | O=S1(=O)CC(n2cc(-c3ncnc4oc(-c5ccncn5)cc34)c(-c3ccc(F)cc3)n2)C1 [Example 196, 3-{3-(4-fluorophenyl)-4-[6-(pyrimidin-4-yl)furo[2,3-d]pyrimidin-4-yl]-1H-pyrazol-1-yl}-1λ6-thietane-1,1-dione]
1160 | 0.41 | 65 | 63.8 | CC(=O)N1C=C(c2cc3c(-c4cn(C5CS(=O)(=O)C5)nc4-c4ccc(F)cc4)ncnc3o2)CCC1 [Example 155, 3-{4-[6-(1-acetyl-1,4,5,6-tetrahydropyridin-3-yl)furo[2,3-d]pyrimidin-4-yl]-3-(4-fluorophenyl)-1H-pyrazol-1-yl}-1λ6-thietane-1,1-dione]
1160 | 0.33 | 17.1 | 31.9 | FCCn1cc(-c2ncnc3oc(-c4ccccc4)cc23)c(-c2ccc(F)cc2)n1 [Example 135, 4-[1-(2-Fluoroethyl)-3-(4-fluorophenyl)-1H-pyrazol-4-yl]-6-phenylfuro[2,3-d]pyrimidine]
3610 | 0.83 | 175 | 274 | CS(=O)(=O)[C@H]1C[C@H](n2cc(-c3ncnc4oc(-c5ccccc5)cc34)c(-c3ccc(F)cc3)n2)C1 [Example 194, 4-{3-(4-fluorophenyl)-1-[(1r,3r)-3-(methanesulfonyl)cyclobutyl]-1H-pyrazol-4-yl}-6-phenylfuro[2,3-d]pyrimidine]
6050 | 3.79 | 511 | 267 | O=S1(=O)CC(n2cc(-c3ncnc4oc(C5=CCCNC5)cc34)c(-c3ccc(F)cc3)n2)C1 [Example 159, 3-{3-(4-fluorophenyl)-4-[6-(1,2,5,6-tetrahydropyridin-3-yl)furo[2,3-d]pyrimidin-4-yl]-1H-pyrazol-1-yl}-1λ6-thietane-1,1-dione]
720 | 0.18 | 14.6 | 58.2 | O=S1(=O)CCC[C@@H](Cn2cc(-c3ncnc4oc(-c5ccccc5)cc34)c(-c3ccc(F)cc3)n2)C1 (single isomer, unassigned) [Example 126]
3070 | 0.97 | 196 | 260 | CS(=O)(=O)[C@@H]1CC[C@H](n2cc(-c3ncnc4oc(-c5ccccc5)cc34)c(-c3ccc(F)cc3)n2)C1 (single isomer, unassigned) [Example 192]
10300 | 8.55 | 574 | 551 | CC(C)(C)OC(=O)N1C=C(c2cc3c(-c4cn(C5CS(=O)(=O)C5)nc4-c4ccc(F)cc4)ncnc3o2)CCC1 [Example 139, tert-butyl 5-{4-[1-(1,1-dioxo-1λ6-thietan-3-yl)-3-(4-fluorophenyl)-1H-pyrazol-4-yl]furo[2,3-d]pyrimidin-6-yl}-3,4-dihydropyridine-1(2H)-carboxylate]
551 | 0.207 | 13.4 | 11.9 | Cn1ccc(-c2cc3c(-c4cn(CC(C)(C)O)nc4-c4ccc(F)cc4)ncnc3o2)n1 [Example 275, 1-{3-(4-fluorophenyl)-4-[6-(1-methyl-1H-pyrazol-3-yl)furo[2,3-d]pyrimidin-4-yl]-1H-pyrazol-1-yl}-2-methylpropan-2-ol]
1390 | 0.5 | 94.4 | 63.7 | CC(=O)N1CC=C(c2cc3c(-c4cn(CC(C)(C)O)nc4-c4ccc(F)cc4)ncnc3o2)CC1 [Example 138, 1-[4-{4-[3-(4-Fluorophenyl)-1-(2-hydroxy-2-methylpropyl)-1H-pyrazol-4-yl]furo[2,3-d]pyrimidin-6-yl}-3,6-dihydropyridin-1 (2H)-yl]ethan-1-one]
9070 | 3.72 | 770 | 491 | O=S1(=O)CC(n2cc(-c3ncnc4oc(-c5ccnnc5)cc34)c(-c3ccc(F)cc3)n2)C1 [Example 174, 3-{3-(4-fluorophenyl)-4-[6-(pyridazin-4-yl)furo[2,3-d]pyrimidin-4-yl]-1H-pyrazol-1-yl}-1λ6-thietane-1,1-dione]
> 20000 | 15.6 | 3570 | 1150 | O=S1(=O)CC(n2cc(-c3ncnc4oc(N5CC6(CCOC6)C5)cc34)c(-c3ccc(F)cc3)n2)C1 [Example 168, 3-{3-(4-fluorophenyl)-4-[6-(6-oxa-2-azaspiro[3.4]octan-2-yl)furo[2,3-d]pyrimidin-4-yl]-1H-pyrazol-1-yl}-1λ6-thietane-1,1-dione]
1040 | 0.55 | 37.2 | 111 | CC1(C)CC(Cn2cc(-c3ncnc4oc(-c5ccccc5)cc34)c(-c3ccc(F)cc3)n2)O1 (stereo not drawn) [Example 220, 4-{1-[(4,4-dimethyloxetan-2-yl)methyl]-3-(4-fluorophenyl)-1H-pyrazol-4-yl}-6-phenylfuro[2,3-d]pyrimidine]
2120 | 3.6 | 438 | 309 | Cc1cnc(-c2cc3c(-c4cn(C5CS(=O)(=O)C5)nc4-c4ccc(F)cc4)ncnc3o2)o1 [Example 234, 3-{3-(4-fluorophenyl)-4-[6-(5-methyl-1,3-oxazol-2-yl)furo[2,3-d]pyrimidin-4-yl]-1H-pyrazol-1-yl}-1λ6-thietane-1,1-dione]
2500 | 0.74 | 35 | 73.9 | CC1(C)C[C@@H](n2cc(-c3ncnc4oc(-c5ccccc5)cc34)c(-c3ccc(F)cc3)n2)CO1 (single isomer, unassigned) [Example 237]
